Test results as given in article PMC7106896, “Synthesis and biological evaluation of 2-(4-methylsulfonyl phenyl) indole derivatives: multi-target compounds with dual antimicrobial and anti-inflammatory activities” (BMC Chemistry, 2020).
≈ marks a conversion by molar mass, not a printed value. Where “and” joins values, the source holds several entries; their conditions need not be identical. Equal entries are not always repeated.

How the values were obtained:
[1] = system: MRSA; assay: Minimal inhibitory concentration measurement; format: cell-based; details: Staphylococcus aureus, read-out: MIC Sa (MRSA)
Description: (§2) The antimicrobial and antifungal screening was performed according to CO-ADD (The Community for Antimicrobial Drug Discovery) procedures [27].

[2] = system: A. baumannii; assay: Minimal inhibitory concentration measurement; format: cell-based; details: Acinetobacter baumannii; read-out: MIC Ab (A. baumannii)
Description: as §2

[3] = system: P. aeruginosa; assay: Minimal inhibitory concentration measurement; format: cell-based; details: Pseudomonas aeruginosa; read-out: MIC Pa (P. aeruginosa)
Description: as §2

[4] = system: E. coli; assay: Minimal inhibitory concentration measurement; format: cell-based; details: Escherichia coli; read-out: MIC Ec (E. coli)
Description: as §2

[5] = system: Candida albicans (ATCC 90028); assay: Antifungal screening (CO-ADD), growth inhibition at single concentration; format: cell-based; details: ATCC90028, at 32 µg/mL concentration, read-out: growth inhibition % Ca (C. albicans)
Description: (§1) The antimicrobial study was performed by CO-ADD (The Community for Antimicrobial Drug Discovery), funded by the Wellcome Trust (UK) and The University of Queensland (Australia). Evaluation of all synthesized compounds for their antimicrobial activities was done against five pathogenic bacteria, methicillin-resistant Staphylococcus aureus (ATCC 43300) as Gram-positive bacteria, Escherichia coli (ATCC 25922), Klebsiella pneumonia (ATCC 700603), Acinetobacter baumannii (ATCC 19606) and Pseudomonas aeruginosa (ATCC 27853) as Gram-negative bacteria and antifungal activity against two pathogenic fungal strains Candida albicans (ATCC 90028) and Cryptococcus neoformans var. grubii (H99; ATCC 208821) (Table 1).

[6] = molecular target: T1, Ovine COX-1 (Ovis aries, UniProt P05979); assay: In vitro COX inhibition colorimetric assay; format: biochemical
T1 construct: purchased Cayman Chemical, Ann Arbor, MI, USA 760111
T1 sequence (P05979 25-600): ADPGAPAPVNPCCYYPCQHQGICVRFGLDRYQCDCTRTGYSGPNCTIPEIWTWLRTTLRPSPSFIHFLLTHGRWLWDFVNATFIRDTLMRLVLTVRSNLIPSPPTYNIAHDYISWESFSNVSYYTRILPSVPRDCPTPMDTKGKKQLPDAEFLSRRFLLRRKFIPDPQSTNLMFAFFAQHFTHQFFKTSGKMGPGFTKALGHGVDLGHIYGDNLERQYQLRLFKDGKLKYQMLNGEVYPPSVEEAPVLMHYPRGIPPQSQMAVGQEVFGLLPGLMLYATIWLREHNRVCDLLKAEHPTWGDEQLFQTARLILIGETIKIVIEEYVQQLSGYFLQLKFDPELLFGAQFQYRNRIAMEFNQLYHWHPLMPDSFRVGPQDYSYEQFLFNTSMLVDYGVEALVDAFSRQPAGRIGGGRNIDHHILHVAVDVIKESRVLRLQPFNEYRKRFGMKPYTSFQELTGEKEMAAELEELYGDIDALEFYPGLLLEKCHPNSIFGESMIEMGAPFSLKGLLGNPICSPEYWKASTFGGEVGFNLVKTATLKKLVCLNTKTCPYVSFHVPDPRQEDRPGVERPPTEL

[7] = system: methicillin-resistant Staphylococcus aureus (ATCC 43300); assay: Antimicrobial screening (CO-ADD), growth inhibition at single concentration; format: cell-based; details: ATCC 43300 / MRSA, at 32 µg/mL concentration, read-out: growth inhibition % Sa (MRSA)
Description: as §1

[8] = system: Acinetobacter baumannii (ATCC 19606); assay: as above; format: cell-based; details: ATCC19606, at 32 µg/mL concentration, read-out: growth inhibition % Ab (A. baumannii)
Description: as §1

[9] = system: Pseudomonas aeruginosa (ATCC 27853); assay: as above; format: cell-based; details: ATCC27853, at 32 µg/mL concentration, read-out: growth inhibition % Pa (P. aeruginosa)
Description: as §1

[10] = system: carrageenan-induced rat paw edema; assay: Carrageenan-induced rat paw edema assay; format: in vivo; details: for Edema thickness (mm) ± SEM: n = 4
Description: Pretreatment of rats with compounds 7a–k, 8a–c, and 9a–c before injection with carrageenan in rat paw which induces inflammation and then the percentage of paw edema reduction was measured after certain hours according to previously reported procedures.

[11] = system: human recombinant COX-2; assay: In vitro COX inhibition colorimetric assay; format: biochemical; details: COX-1 IC50/COX-2 IC50
[12] = system: Klebsiella pneumonia (ATCC 700603); assay: Antimicrobial screening (CO-ADD), growth inhibition at single concentration; format: cell-based; details: Klebsiella pneumoniae, ATCC700603; at 32 µg/mL concentration; read-out: growth inhibition % Kp (K. pneumoniae)
Description: as §1

[13] = system: Escherichia coli (ATCC 25922); assay: as above; format: cell-based; details: ATCC25922, at 32 µg/mL concentration, read-out: growth inhibition % Ec (E. coli)
Description: as §1

CO/N=C(\C(=O)N[C@@H]1C(=O)N2C(C(=O)O)=C(CSc3nc(=O)c(=O)[nH]n3C)CS[C@H]12)c1csc(N)n1 [Ceftriaxone, ceftriaxone, reference compound]
MIC [1]: 32 µg/mL (≈ 57.7 µM) | MIC [2]: 32 µg/mL (≈ 57.7 µM) | MIC [3]: 32 µg/mL (≈ 57.7 µM) | MIC [4]: 0.125 µg/mL (≈ 0.225 µM)

CS(=O)(=O)c1ccc(NN=Cc2c(-c3ccc(S(C)(=O)=O)cc3)[nH]c3ccccc23)cc1 [Compound 7b, 2-(4-(Methylsulfonyl)phenyl)-3-((2-(4-(methylsulfonyl)phenyl)hydrazono)methyl)-1H-indole]
inhibition at 32 µg/mL [5]: 9.55% | IC50 [6]: 12.4 µM | melting point: 228 to 230 °C | inhibition at 32 µg/mL [7]: 25.6% | inhibition at 32 µg/mL [8]: 35.5% | inhibition at 32 µg/mL [9]: 3.8% | Edema inhibition % ([10]; 1 h): 76.1% | Edema thickness (mm) ± SEM ([10]; 1 h): 0.627 ± 0.045 mm | Edema inhibition % ([10]; 3 h): 91.2% | Edema thickness (mm) ± SEM ([10]; 3 h): 0.196 ± 0.017 mm | Edema inhibition % ([10]; 6 h): 93.5% | Edema thickness (mm) ± SEM ([10]; 6 h): 0.123 ± 0.009 mm | Selectivity index (SI) [11]: 124.10

CS(=O)(=O)c1ccc(-c2[nH]c3ccccc3c2C=NNc2ccc(S(N)(=O)=O)cc2)cc1 [Compound 7c, 4-(2-((2-(4-(Methylsulfonyl)phenyl)-1H-indol-3-yl)methylene)hydrazinyl)benzene sulfonamide]
inhibition at 32 µg/mL [5]: 4.13% | IC50 [6]: 11.4 µM | melting point: 203 to 204 °C | inhibition at 32 µg/mL [7]: 21.9% | inhibition at 32 µg/mL [8]: 43.3% | inhibition at 32 µg/mL [9]: 11.3% | inhibition at 32 µg/mL [12]: 12.8% | inhibition at 32 µg/mL [13]: 3.17% | Edema inhibition % ([10]; 1 h): 62.7% | Edema thickness (mm) ± SEM ([10]; 1 h): 0.978 ± 0.071 mm | Edema inhibition % ([10]; 3 h): 81.2% | Edema thickness (mm) ± SEM ([10]; 3 h): 0.419 ± 0.028 mm | Edema inhibition % ([10]; 6 h): 82.5% | Edema thickness (mm) ± SEM ([10]; 6 h): 0.331 ± 0.011 mm | Selectivity index (SI) [11]: 103.7 and 103.72

CS(=O)(=O)c1ccc(N/N=C/c2c(-c3ccc(S(C)(=O)=O)cc3)[nH]c3ccc(F)cc23)cc1 [Compound 7h, 5-Fluoro-2-(4-(methylsulfonyl)phenyl)-3-((2-(4-(methylsulfonyl)phenyl) hydraz-ono)methyl)-1H-indole]
inhibition at 32 µg/mL [5]: 25.3% | IC50 [6]: 12.4 µM | melting point: 187 to 188 °C | inhibition at 32 µg/mL [7]: 30.3% | inhibition at 32 µg/mL [8]: 51.8% | inhibition at 32 µg/mL [9]: 7.97% | inhibition at 32 µg/mL [12]: 23.6% | Edema inhibition % ([10]; 1 h): 75.4% | Edema thickness (mm) ± SEM ([10]; 1 h): 0.645 ± 0.058 mm | Edema inhibition % ([10]; 3 h): 89.4% | Edema thickness (mm) ± SEM ([10]; 3 h): 0.236 ± 0.008 mm | Edema inhibition % ([10]; 6 h): 92.7% | Edema thickness (mm) ± SEM ([10]; 6 h): 0.138 ± 0.006 mm | Selectivity index (SI) [11]: 112.7 and 112.72

Cc1ccc(NN=Cc2c(-c3ccc(S(C)(=O)=O)cc3)[nH]c3ccc(F)cc23)cc1 [Compound 7k, 5-Fluoro-2-(4-(methylsulfonyl)phenyl)-3-((2-(p-tolyl)hydrazono)methyl)-1H-indole]
inhibition at 32 µg/mL [5]: 1.79% | IC50 [6]: 8.24 µM | melting point: 151 to 153 °C | inhibition at 32 µg/mL [7]: 28.2% | inhibition at 32 µg/mL [8]: 31.4% | inhibition at 32 µg/mL [9]: 2.23% | inhibition at 32 µg/mL [12]: 8.77% | Edema inhibition % ([10]; 1 h): 55.7% | Edema thickness (mm) ± SEM ([10]; 1 h): 1.162 ± 0.088 mm | Edema inhibition % ([10]; 3 h): 69.1% | Edema thickness (mm) ± SEM ([10]; 3 h): 0.689 ± 0.011 mm | Edema inhibition % ([10]; 6 h): 66.3% | Edema thickness (mm) ± SEM ([10]; 6 h): 0.638 ± 0.051 mm | Selectivity index (SI) [11]: 39.20

CS(=O)(=O)c1ccc(-c2[nH]c3ccc(F)cc3c2-c2nc3cc(Cl)ccc3[nH]2)cc1 [Compound 8b, 5-Chloro-2-(5-fluoro-2-(4-(methylsulfonyl)phenyl)-1H-indol-3-yl)-1H-benzo[d] imidazole]
inhibition at 32 µg/mL [5]: 13.2% | IC50 [6]: 9.41 µM | melting point: 202 to 204 °C | inhibition at 32 µg/mL [7]: 11.3% | inhibition at 32 µg/mL [8]: 22.4% | inhibition at 32 µg/mL [9]: 14.5% | inhibition at 32 µg/mL [12]: 6.56% | Edema inhibition % ([10]; 1 h): 52.1% | Edema thickness (mm) ± SEM ([10]; 1 h): 1.256 ± 0.074 mm | Edema inhibition % ([10]; 3 h): 68.1% | Edema thickness (mm) ± SEM ([10]; 3 h): 0.712 ± 0.066 mm | Edema inhibition % ([10]; 6 h): 76.2% | Edema thickness (mm) ± SEM ([10]; 6 h): 0.451 ± 0.013 mm | Selectivity index (SI) [11]: 62.73

CS(=O)(=O)c1ccc(-c2[nH]c3ccccc3c2C=NO)cc1 [Compound 9a, 2-(4-(Methylsulfonyl)phenyl)-1H-indole-3-carbaldehyde oxime]
inhibition at 32 µg/mL [5]: 9.15% | IC50 [6]: 10.6 µM | melting point: 199 to 201 °C | inhibition at 32 µg/mL [8]: 42.1% | inhibition at 32 µg/mL [9]: 2.49% | inhibition at 32 µg/mL [12]: 14.8% | Edema inhibition % ([10]; 1 h): 77.2% | Edema thickness (mm) ± SEM ([10]; 1 h): 0.598 ± 0.050 mm | Edema inhibition % ([10]; 3 h): 61.8% | Edema thickness (mm) ± SEM ([10]; 3 h): 0.852 ± 0.073 mm | Edema inhibition % ([10]; 6 h): 62.3% | Edema thickness (mm) ± SEM ([10]; 6 h): 0.714 ± 0.052 mm | Selectivity index (SI) [11]: 81.84

CS(=O)(=O)c1ccc(-c2[nH]c3ccc(F)cc3c2C=NO)cc1 [Compound 9b, 5-Fluoro-2-(4-(methylsulfonyl)phenyl)-1H-indole-3-carbaldehyde oxime]
inhibition at 32 µg/mL [5]: 2.47% | IC50 [6]: 9.42 µM | melting point: 226 to 228 °C | inhibition at 32 µg/mL [7]: 10.3% | inhibition at 32 µg/mL [8]: 33.3% | inhibition at 32 µg/mL [9]: 7.9% | inhibition at 32 µg/mL [12]: 9.23% | Edema inhibition % ([10]; 1 h): 66.2% | Edema inhibition % ([10]; 3 h): 80.5% | Edema thickness (mm) ± SEM ([10]; 3 h): 0.700 ± 0.024 mm | Edema inhibition % ([10]; 6 h): 73.4% | Edema thickness (mm) ± SEM ([10]; 6 h): 0.726 ± 0.055 mm | Selectivity index (SI) [11]: 44.85
